Laboratory results published in patent publication EP0527889B1, “QUINOLIZINONE TYPE COMPOUNDS” (priority 1990, dated 1991).
≈ marks a conversion by molar mass, not a printed value. Where a name gives a salt, the structure may show the parent alone.

How the values were obtained:
Assay in all cases: In vitro antibacterial activity, MIC by agar dilution
Format in all cases: cell-based
Escherichia coli KNK 437 = conditions: BHI agar, 35-37°C, 20-24 hours, unit assumed
Description: (§1) Each plate was inoculated with 1:100 (or 1:10 for slow growing strains, primarily Micrococcus and Streptococcus) dilutions of up to 32 different microorganisms, using a Steers replicator block calibrated to deliver approximately 10^4 colony forming units (CFUs). The inoculated plates were incubated at from about 35°C to about 37°C for approximately 20-24 hours. In addition, a control plate using BHI agar containing no test compound was prepared and incubated at the beginning and at the end of each test. Ciprofloxacin was used as the control antibiotic.
(§2) The MIC was defined as the lowest concentration of test compound yielding no growth (a slight haze or sparsely isolated colonies at the inoculum spot) as compared to the growth control containing no test compound.

[1] = system: Pseudomonas aeruginosa K799/WT; conditions: BHI agar, 35-37°C, 20-24 hours, unit assumed
Description: as §1, §2

Escherichia coli SS = conditions: BHI agar, 35-37°C, 20-24 hours, unit assumed
Description: as §1, §2

[2] = system: Staphylococcus aureus NCTC 10649; conditions: BHI agar, 35-37°C, 20-24 hours, unit assumed
Description: as §1, §2

Escherichia coli JUHL = conditions: BHI agar, 35-37°C, 20-24 hours, unit assumed
Description: as §1, §2

[3] = system: Pseudomonas aeruginosa K799/61; conditions: BHI agar, 35-37°C, 20-24 hours, unit assumed
Description: as §1, §2

[4] = system: Staphylococcus aureus ATCC 6538P; conditions: BHI agar, 35-37°C, 20-24 hours, unit assumed
Description: as §1, §2

[5] = system: Streptococcus pyrogenes 2548 INDUC; conditions: BHI agar, 35-37°C, 20-24 hours, unit assumed
Description: as §1, §2

[6] = system: Klebsiella pneumoniae ATCC 8045; conditions: BHI agar, 35-37°C, 20-24 hours, unit assumed
Description: as §1, §2

[7] = system: Streptococcus agalactaciae CMX 508; conditions: BHI agar, 35-37°C, 20-24 hours, unit assumed
Description: as §1, §2

[8] = system: Acinetobacter calcoaceticus CMX 669; conditions: BHI agar, 35-37°C, 20-24 hours, unit assumed
Description: as §1, §2

[9] = system: Pseudomonas aeruginosa A5007; conditions: BHI agar, 35-37°C, 20-24 hours, unit assumed
Description: as §1, §2

[10] = system: Staphylococcus aureus 642A; conditions: BHI agar, 35-37°C, 20-24 hours, unit assumed
Description: as §1, §2

[11] = system: Pseudomonas aeruginosa BMH10; conditions: BHI agar, 35-37°C, 20-24 hours, unit assumed
Description: as §1, §2

[12] = system: Staphylococcus epidermidis 3519; conditions: BHI agar, 35-37°C, 20-24 hours, unit assumed
Description: as §1, §2

[13] = system: Streptococcus pyrogenes CONST; conditions: BHI agar, 35-37°C, 20-24 hours, unit assumed
Description: as §1, §2

Escherichia coli DC-2 = conditions: BHI agar, 35-37°C, 20-24 hours, unit assumed
Description: as §1, §2

[14] = system: Micrococcus luteus ATCC 4698; conditions: BHI agar, 35-37°C, 20-24 hours, unit assumed
Description: as §1, §2

[15] = system: Streptococcus pyrogenes EES61; conditions: BHI agar, 35-37°C, 20-24 hours, unit assumed
Description: as §1, §2

[16] = system: Enterobacter aerogenes ATCC 13048; conditions: BHI agar, 35-37°C, 20-24 hours, unit assumed
Description: as §1, §2

[17] = system: Staphylococcus aureus CMX 553; conditions: BHI agar, 35-37°C, 20-24 hours, unit assumed
Description: as §1, §2

[18] = system: Staphylococcus aureus A5177; conditions: BHI agar, 35-37°C, 20-24 hours, unit assumed
Description: as §1, §2

[19] = system: Providencia stuartii CMX 640; conditions: BHI agar, 35-37°C, 20-24 hours, unit assumed
Description: as §1, §2

Pseudomonas cepacia 296I = conditions: BHI agar, 35-37°C, 20-24 hours, unit assumed
Description: as §1, §2

[20] = system: Streptococcus bovis A5169; conditions: BHI agar, 35-37°C, 20-24 hours, unit assumed
Description: as §1, §2

[21] = system: Micrococcus luteus ATCC 9341; conditions: BHI agar, 35-37°C, 20-24 hours, unit assumed
Description: as §1, §2

[22] = system: Enterococcus faecium ATCC 8043; conditions: BHI agar, 35-37°C, 20-24 hours, unit assumed
Description: as §1, §2

Escherichia coli H560 = conditions: BHI agar, 35-37°C, 20-24 hours, unit assumed
Description: as §1, §2

[23] = system: Staphylococcus aureus 1775; conditions: BHI agar, 35-37°C, 20-24 hours, trifluoroacetic acid salt, unit assumed
Description: as §1, §2

SMILES | MIC values (Escherichia coli KNK 437) | MIC values [1] | MIC values (Escherichia coli SS) | MIC values (Escherichia coli JUHL) | MIC values [3] | MIC values [4] | MIC values [5] | MIC values [6] | MIC values [7] | MIC values [8] | MIC values [9] | MIC values [11] | MIC values [12] | MIC values [13] | MIC values (Escherichia coli DC-2) | MIC values [14] | MIC values [15] | MIC values [16] | MIC values [17] | MIC values [18] | other results
CN1CCN(c2nc3c(-c4ccc(F)cc4)cc(C(=O)O)c(=O)n3cc2F)CC1 [Example 1, 3-Fluoro-9-(4-fluorophenyl)-2-(4-methylpiperazin-1-yl)-6H-6-oxo-pyrido[1,2-a]pyrimidine-7-carboxylic acid] | 6.2 µg/mL (≈ 15.5 µM) | 3.1 µg/mL (≈ 7.74 µM) | < 0.05 µg/mL | 0.39 µg/mL (≈ 0.974 µM) | 0.39 µg/mL (≈ 0.974 µM) | 0.39 µg/mL (≈ 0.974 µM) | 3.1 µg/mL (≈ 7.74 µM) | 0.2 µg/mL (≈ 0.5 µM) | 12.5 µg/mL (≈ 31.2 µM) | 0.78 µg/mL (≈ 1.95 µM) | 6.2 µg/mL (≈ 15.5 µM) | 6.2 µg/mL (≈ 15.5 µM) | 0.78 µg/mL (≈ 1.95 µM) | 6.2 µg/mL (≈ 15.5 µM) | 12.5 µg/mL (≈ 31.2 µM) | 25 µg/mL (≈ 62.4 µM) | 6.2 µg/mL (≈ 15.5 µM) | 0.78 µg/mL (≈ 1.95 µM) | 0.78 µg/mL (≈ 1.95 µM) | 0.78 µg/mL (≈ 1.95 µM) | MIC values [2]: 0.39 µg/mL (≈ 0.974 µM); MIC values [10]: 0.78 µg/mL (≈ 1.95 µM); MIC values [19]: 25 µg/mL (≈ 62.4 µM); MIC values (Pseudomonas cepacia 296I): 25 µg/mL (≈ 62.4 µM); MIC values [20]: 25 µg/mL (≈ 62.4 µM); MIC values [21]: 50 µg/mL (≈ 125 µM); MIC values [22]: 25 µg/mL (≈ 62.4 µM)
CCc1cc(C(=O)O)c(=O)n2ccc(N3CCC(N)C3)cc12.Cl (centres unmarked) [Example 62, 8-(3-Amino-1-pyrrolidinyl)-1-ethyl-4H-quinolizin-4-one-3-carboxylic acid hydrochloride] | 25 µg/mL | 6.2 µg/mL | 0.39 µg/mL | 3.1 µg/mL | 0.05 µg/mL | 3.1 µg/mL | 25 µg/mL | 3.1 µg/mL | 25 µg/mL | 0.78 µg/mL | 6.2 µg/mL | 6.2 µg/mL | 12.5 µg/mL | 25 µg/mL | 25 µg/mL | 12.5 µg/mL | 25 µg/mL | 3.1 µg/mL | 12.5 µg/mL | 12.5 µg/mL | MIC values [2]: 6.2 µg/mL; MIC values (Escherichia coli H560): 3.1 µg/mL; MIC values [10]: 6.2 µg/mL; MIC values [19]: 25 µg/mL; MIC values (Pseudomonas cepacia 296I): 3.1 µg/mL; MIC values [20]: 25 µg/mL; MIC values [21]: 25 µg/mL; MIC values [22]: 50 µg/mL
CCc1cc(C(=O)O)c(=O)n2ccc(N3CCNC(C)C3)cc12.Cl (centres unmarked) [Example 64, 1-Ethyl-8-(3-methyl-1-piperazinyl)-4H-quinolizin-4-one-3-carboxylic acid hydrochloride] | 100 µg/mL | 25 µg/mL | 1.56 µg/mL | 6.2 µg/mL | 6.2 µg/mL | 25 µg/mL | 50 µg/mL | 6.2 µg/mL | 50 µg/mL | 50 µg/mL | 50 µg/mL | 25 µg/mL | 50 µg/mL | 50 µg/mL | 100 µg/mL | 25 µg/mL | 50 µg/mL | 6.2 µg/mL | 50 µg/mL | 50 µg/mL | MIC values (Escherichia coli H560): 12.5 µg/mL; MIC values [19]: > 100 µg/mL; MIC values (Pseudomonas cepacia 296I): 100 µg/mL; MIC values [20]: 25 µg/mL; MIC values [21]: 25 µg/mL; MIC values [22]: 100 µg/mL
CCc1cc(C(=O)O)c(=O)n2ccc(N3CCN(C)CC3)cc12.Cl [Example 65, 1-Ethyl-8-(4-methylpiperazin-1-yl)-4H-quinolizin-4-one-3-carboxylic acid hydrochloride] | 100 µg/mL | 25 µg/mL | 1.56 µg/mL | 12.5 µg/mL | 25 µg/mL | 12.5 µg/mL | 50 µg/mL | 6.2 µg/mL | 100 µg/mL | 25 µg/mL | 25 µg/mL | 25 µg/mL | 25 µg/mL | 50 µg/mL | > 100 µg/mL | 25 µg/mL | 100 µg/mL | 12.5 µg/mL | 50 µg/mL | 25 µg/mL | MIC values [19]: > 100 µg/mL; MIC values (Pseudomonas cepacia 296I): 100 µg/mL; MIC values [20]: 100 µg/mL; MIC values [21]: 25 µg/mL; MIC values [22]: 50 µg/mL
NC1CCN(c2nc3c(-c4ccc(F)cc4F)cc(C(=O)O)c(=O)n3cc2F)C1 (centres unmarked) [Example 162, 2-(3-Aminopyrrolidin-1-yl)-9-(2,4-difluorophenyl)-3-fluoro-6H-6-oxopyrido[1,2-a]pyrimidine-7-carboxylic acid trifluoroacetic acid salt] | – | – | – | – | – | – | – | – | – | – | – | – | – | – | – | – | – | – | – | – | MIC values (Escherichia coli KNK 437; trifluoroacetic acid salt): 0.39 µg/mL; MIC values ([1]; trifluoroacetic acid salt): 0.39 µg/mL; MIC values ([2]; trifluoroacetic acid salt): 0.1 µg/mL; MIC values ([4]; trifluoroacetic acid salt): 0.1 µg/mL; MIC values ([5]; trifluoroacetic acid salt): 0.2 µg/mL; MIC values ([6]; trifluoroacetic acid salt): 0.02 µg/mL; MIC values ([7]; trifluoroacetic acid salt): 0.78 µg/mL; MIC values ([8]; trifluoroacetic acid salt): 0.1 µg/mL; MIC values ([9]; trifluoroacetic acid salt): 0.39 µg/mL; MIC values ([10]; trifluoroacetic acid salt): 0.2 µg/mL; MIC values ([12]; trifluoroacetic acid salt): 0.2 µg/mL; MIC values (Escherichia coli DC-2; trifluoroacetic acid salt): 0.39 µg/mL; MIC values [23]: > 100 µg/mL; MIC values ([17]; trifluoroacetic acid salt): 0.2 µg/mL; MIC values (Pseudomonas cepacia 296I; trifluoroacetic acid salt): 6.2 µg/mL; MIC values ([21]; trifluoroacetic acid salt): 6.2 µg/mL
